ChEMBL document CHEMBL3124856, “Design, synthesis, and pharmacological evaluation of a novel series of pyridopyrazine-1,6-dione γ-secretase modulators” (J Med Chem, 2014)
Values after ≈ are worked out from the molar mass of the structure shown. Values belong to the molecule of their own block, whether it stands above or below them.

Legend:
MDR1 (human) [1] = assay: Efflux ratio of permeability in MDCK cells expressing human MDR1; assay type: ADME, cell-based, Canis lupus familiaris; conditions: dog
Gamma-secretase [2] = assay: Modulation of gamma-secretase (unknown origin) expressed in CHO cells overexpressing human wild type APP assessed as reduction of amyloid beta 42 level after 24 hrs by ELISA; assay type: cell-based
[3] = Apparent intrinsic clearance in human liver microsomes; assay type: ADME; conditions: read-out: CLH(app)
[4] = Half life in rat at 1 mg/kg, iv; assay type: ADME, organism-based; design: dose 1 mg/kg, route intravenous; conditions: in vivo
Cytochrome P450 2C9 = Cytochrome P450 2C9 (Homo sapiens, UniProt P11712); assay: Inhibition of CYP2C9 (unknown origin); assay type: ADME
Cytochrome P450 2C9, sequence (P11712 whole entry): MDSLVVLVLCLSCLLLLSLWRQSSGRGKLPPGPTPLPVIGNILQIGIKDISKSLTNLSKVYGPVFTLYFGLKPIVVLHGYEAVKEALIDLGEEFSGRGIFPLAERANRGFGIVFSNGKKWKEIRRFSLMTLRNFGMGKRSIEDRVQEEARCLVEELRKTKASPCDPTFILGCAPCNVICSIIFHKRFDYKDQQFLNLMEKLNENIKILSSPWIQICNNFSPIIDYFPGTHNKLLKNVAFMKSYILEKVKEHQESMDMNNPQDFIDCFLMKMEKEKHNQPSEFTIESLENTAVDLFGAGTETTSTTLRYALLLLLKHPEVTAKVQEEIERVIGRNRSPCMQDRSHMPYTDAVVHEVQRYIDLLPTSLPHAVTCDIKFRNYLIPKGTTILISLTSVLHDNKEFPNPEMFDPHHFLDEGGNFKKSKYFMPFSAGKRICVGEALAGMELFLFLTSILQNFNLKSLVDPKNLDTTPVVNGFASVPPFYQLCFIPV

Gamma-secretase [5] = assay: Modulation of gamma secretase in HEK293 NdeltaE cells assessed as inhibition of notch signalling; assay type: cell-based, Homo sapiens
[6] = Ratio of unbound drug level in brain to plasma in rat; assay type: ADME
MDR1 (human) [7] = assay: Permeability from apical to basolateral side in MDCK cells expressing human MDR; assay type: ADME, cell-based, Canis lupus familiaris; conditions: dog, read-out: permeability
[8] = Aqueous kinetic solubility of the compound at pH 6.5; assay type: physicochemical; conditions: read-out: Kinetic_solubility
[9] = Fraction unbound in rat plasma; assay type: ADME, cell-free
Cytochrome P450 2C19 = Cytochrome P450 2C19 (Homo sapiens, UniProt P33261); assay: Inhibition of CYP2C19 (unknown origin); assay type: ADME
Cytochrome P450 2C19, sequence (P33261 whole entry): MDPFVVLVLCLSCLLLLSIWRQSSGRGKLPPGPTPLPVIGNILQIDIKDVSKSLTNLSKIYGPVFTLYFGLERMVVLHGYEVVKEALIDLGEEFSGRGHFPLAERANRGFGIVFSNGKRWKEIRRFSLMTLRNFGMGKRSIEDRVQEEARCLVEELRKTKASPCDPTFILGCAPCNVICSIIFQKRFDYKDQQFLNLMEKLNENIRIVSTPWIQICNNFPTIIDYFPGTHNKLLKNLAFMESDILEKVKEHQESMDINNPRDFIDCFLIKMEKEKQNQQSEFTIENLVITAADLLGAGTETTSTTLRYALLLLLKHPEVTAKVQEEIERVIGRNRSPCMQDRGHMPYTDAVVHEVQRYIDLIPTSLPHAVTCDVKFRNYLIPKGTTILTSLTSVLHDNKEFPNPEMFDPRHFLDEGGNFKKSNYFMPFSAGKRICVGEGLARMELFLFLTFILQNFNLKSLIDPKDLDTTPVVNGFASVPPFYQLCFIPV

[10] = Drug uptake in rat brain at 5 mg/kg, po after 1 hr; assay type: ADME, organism-based; design: dose 5 mg/kg, route oral; conditions: read-out: Drug uptake
[11] = Lipophilicity, log D of the compound by shake flask method; assay type: physicochemical; conditions: octanol/water
Cytochrome P450 3A4 = Cytochrome P450 3A4 (Homo sapiens, UniProt P08684); assay: Inhibition of CYP3A4 (unknown origin); assay type: ADME
Cytochrome P450 3A4, sequence (P08684 whole entry): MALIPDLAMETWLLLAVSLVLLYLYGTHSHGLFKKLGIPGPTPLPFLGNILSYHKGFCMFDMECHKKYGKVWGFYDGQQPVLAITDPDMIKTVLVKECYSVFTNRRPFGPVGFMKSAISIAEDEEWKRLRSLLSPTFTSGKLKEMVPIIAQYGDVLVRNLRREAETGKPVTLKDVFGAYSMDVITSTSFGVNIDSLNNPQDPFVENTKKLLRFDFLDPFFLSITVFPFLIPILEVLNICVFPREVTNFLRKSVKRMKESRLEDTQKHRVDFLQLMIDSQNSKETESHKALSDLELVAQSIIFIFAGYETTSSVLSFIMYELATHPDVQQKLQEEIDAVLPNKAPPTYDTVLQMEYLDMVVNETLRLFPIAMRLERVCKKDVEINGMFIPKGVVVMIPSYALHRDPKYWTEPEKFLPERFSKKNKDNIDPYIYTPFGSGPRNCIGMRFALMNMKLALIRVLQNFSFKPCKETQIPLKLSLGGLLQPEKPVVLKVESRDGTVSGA

Cytochrome P450 2D6 = Cytochrome P450 2D6 (Homo sapiens, UniProt P10635); assay: Inhibition of CYP2D6 (unknown origin); assay type: ADME
Cytochrome P450 2D6, sequence (P10635 whole entry): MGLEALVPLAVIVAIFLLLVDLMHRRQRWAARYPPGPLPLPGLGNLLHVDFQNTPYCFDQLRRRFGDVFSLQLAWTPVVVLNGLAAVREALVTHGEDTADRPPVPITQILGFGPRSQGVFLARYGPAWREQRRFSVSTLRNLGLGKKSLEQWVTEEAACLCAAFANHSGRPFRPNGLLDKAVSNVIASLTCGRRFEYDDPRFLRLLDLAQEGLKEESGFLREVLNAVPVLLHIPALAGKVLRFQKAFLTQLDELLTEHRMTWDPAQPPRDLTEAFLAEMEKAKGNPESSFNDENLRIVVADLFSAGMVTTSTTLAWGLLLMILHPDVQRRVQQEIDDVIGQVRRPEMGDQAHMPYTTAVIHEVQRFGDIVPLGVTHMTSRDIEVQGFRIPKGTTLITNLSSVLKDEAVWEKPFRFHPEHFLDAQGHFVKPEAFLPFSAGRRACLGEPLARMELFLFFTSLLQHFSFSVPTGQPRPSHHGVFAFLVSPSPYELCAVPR

Cytochrome P450 1A2 = target: T1, Cytochrome P450 1A2 (Homo sapiens, UniProt P05177); assay: Inhibition of CYP1A2 (unknown origin); assay type: ADME
T1 sequence (P05177 whole entry): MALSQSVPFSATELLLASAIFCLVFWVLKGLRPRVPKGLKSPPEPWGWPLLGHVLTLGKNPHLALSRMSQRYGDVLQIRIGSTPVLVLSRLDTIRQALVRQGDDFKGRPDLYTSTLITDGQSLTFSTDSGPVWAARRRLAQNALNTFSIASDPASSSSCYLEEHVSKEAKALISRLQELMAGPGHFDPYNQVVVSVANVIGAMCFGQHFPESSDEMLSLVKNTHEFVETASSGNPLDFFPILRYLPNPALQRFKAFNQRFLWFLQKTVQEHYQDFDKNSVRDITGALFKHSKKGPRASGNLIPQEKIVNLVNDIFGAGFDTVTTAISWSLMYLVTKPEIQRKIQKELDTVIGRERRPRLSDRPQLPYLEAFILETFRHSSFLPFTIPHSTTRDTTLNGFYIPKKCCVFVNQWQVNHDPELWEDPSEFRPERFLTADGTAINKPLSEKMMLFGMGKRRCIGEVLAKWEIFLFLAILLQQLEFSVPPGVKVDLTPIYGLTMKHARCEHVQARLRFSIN

[12] = Volume of distribution at steady state in rat at 1 mg/kg, iv; assay type: ADME, organism-based; design: dose 1 mg/kg, route intravenous; conditions: in vivo, read-out: Vdss
[13] = Ratio of drug uptake in brain to plasma in rat at 5 mg/kg, po after 1 hr; assay type: ADME, organism-based; design: dose 5 mg/kg, route oral; conditions: read-out: BPR
[14] = Fraction unbound in rat brain; assay type: ADME, tissue-based
[15] = Clearance in rat at 1 mg/kg, iv; assay type: ADME, organism-based; design: dose 1 mg/kg, route intravenous; conditions: in vivo
[16] = Passive apparent permeability from apical to basolateral side in RRCK cells; assay type: ADME, cell-based, Canis lupus familiaris, MDCKII-LE; conditions: dog, MDCK
[17] = Bioavailability in rat at 1 mg/kg, iv and 5 mg/kg, po; assay type: ADME, organism-based; conditions: in vivo
Cytochrome P450 2C8 = target: T2, Cytochrome P450 2C8 (Homo sapiens, UniProt P10632); assay: Inhibition of CYP2C8 (unknown origin); assay type: ADME
T2 sequence (P10632 whole entry): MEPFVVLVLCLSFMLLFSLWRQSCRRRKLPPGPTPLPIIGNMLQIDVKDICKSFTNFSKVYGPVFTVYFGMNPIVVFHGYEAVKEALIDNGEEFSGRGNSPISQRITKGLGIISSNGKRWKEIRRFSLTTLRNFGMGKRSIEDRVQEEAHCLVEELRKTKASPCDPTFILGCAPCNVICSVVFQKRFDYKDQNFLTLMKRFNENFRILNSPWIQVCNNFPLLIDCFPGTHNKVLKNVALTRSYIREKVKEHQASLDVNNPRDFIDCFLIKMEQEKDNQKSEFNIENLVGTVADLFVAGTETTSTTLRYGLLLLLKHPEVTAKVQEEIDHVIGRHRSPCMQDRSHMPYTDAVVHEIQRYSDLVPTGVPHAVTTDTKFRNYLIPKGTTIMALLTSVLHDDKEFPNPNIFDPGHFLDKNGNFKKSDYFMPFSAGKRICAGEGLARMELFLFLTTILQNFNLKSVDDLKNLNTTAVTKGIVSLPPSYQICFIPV

[18] = Plasma concentration in rat at 5 mg/kg, po after 1 hr; assay type: ADME, organism-based; design: dose 5 mg/kg, route oral
[19] = Apparent intrinsic clearance in rat liver microsomes; assay type: ADME; conditions: read-out: CLH(app)

Structure (SMILES): Cc1cn(-c2ccc3c(=O)n(Cc4cccc(C(F)(F)F)c4)ccc3c2O)cn1
efflux ratio (MDR1 (human) [1]): 1.1
IC50 (Gamma-secretase [2]): 0.92 µM
CLint scaled [3]: 0.738 L/h/kg

Structure (SMILES): Cc1cn(-c2ccc3n(c2=O)CCN(CCOc2ccccc2Cl)C3=O)cn1
efflux ratio (MDR1 (human) [1]): 1.5
IC50 (Gamma-secretase [2]): 1.5 µM
CLint scaled [3]: < 0.624 L/h/kg
CLint scaled [19]: 7.02 L/h/kg

Structure (SMILES): COc1cc(C(=O)NCc2cccc(C(F)(F)F)c2)ccc1-n1cnc(C)c1
IC50 (Gamma-secretase [2]): 0.66 µM
CLint scaled [3]: 1.67 L/h/kg

Continued, values first:

half-life [4]: 2.09 h
IC50 (Cytochrome P450 2C9): > 30 µM
IC50 (Gamma-secretase [5]): > 50 µM
Kp uu [6]: 0.43
efflux ratio (MDR1 (human) [1]): 1.5
Papp A→B (MDR1 (human) [7]): 131 nm/s
solubility kinetic [8]: 177 µM (≈ 79.7 µg/mL)
fraction unbound [9]: 0.055
IC50 (Cytochrome P450 2C19): > 30 µM
concentration at 1 h [10]: 0.718 µg/mL
logD [11]: 2.75
IC50 (Cytochrome P450 3A4): > 30 µM
IC50 (Cytochrome P450 2D6): > 30 µM
IC50 (Cytochrome P450 1A2): > 30 µM
Vd [12]: 1.91 L/kg
Kp at 1 h [13]: 0.74
fraction unbound [14]: 0.032
clearance [15]: 0.858 L/h/kg
Papp A→B [16]: 177 nm/s
bioavailability [17]: 100%
IC50 (Gamma-secretase [2]): 0.252 µM
CLint scaled [3]: < 0.528 L/h/kg
IC50 (Cytochrome P450 2C8): 19 µM
concentration at 1 h [18]: 0.964 µg/mL
CLint scaled [19]: 2.65 L/h/kg
Structure (SMILES): Cc1cn(-c2ccc3n(c2=O)CCN(CCOc2ccc(F)cc2C(F)(F)F)C3=O)cn1

efflux ratio (MDR1 (human) [1]): 1.2
IC50 (Gamma-secretase [2]): 0.53 µM
CLint scaled [3]: < 0.48 L/h/kg
CLint scaled [19]: 4.76 L/h/kg
Structure (SMILES): Cc1cn(-c2ccc3n(c2=O)CCN(CCOc2cccc(C(F)(F)F)c2)C3=O)cn1

efflux ratio (MDR1 (human) [1]): 1.5
IC50 (Gamma-secretase [2]): 1.27 µM
CLint scaled [3]: < 0.582 L/h/kg
CLint scaled [19]: 2.42 L/h/kg
Structure (SMILES): Cc1cn(-c2ccc3n(c2=O)CCN(CCOc2ccc(C(F)(F)F)cc2)C3=O)cn1

efflux ratio (MDR1 (human) [1]): 1.5
bioavailability [17]: 23%
IC50 (Gamma-secretase [2]): 0.311 µM
CLint scaled [3]: 0.762 L/h/kg
CLint scaled [19]: 5.82 L/h/kg
Structure (SMILES): Cc1cn(-c2ccc3n(c2=O)CCN(CCOc2ccccc2C(F)(F)F)C3=O)cn1
